According to patent US4238508A, “Method for analgesia using 3-hydroxyacetanilide” (The Research Foundation of State University of New York, priority 1979, dated 1980):

What was measured:
liver glutathione = test: Effect on liver glutathione levels in mice; type: in vivo, mouse; conditions: 600 mg/kg i.p.; for Depletion of mouse liver glutathione: two hours; for Liver glutathione level: two hours after injection, saline 8.2 ± 0.9
Experimental: A number of mice were given doses of acetaminophen and 3-hydroxyacetanilideat levels of 600 mg/kg of body weight and a number of mice were given normal saline as a control. […] All values were determined at two hours after intraperitoneal drug injection.

[1] = British Pat. No. 1,006,558; cited from earlier work
liver [2] = test: Hepatic necrosis; type: in vivo, mice; conditions: compared with acetaminophen
Experimental: (§1) The relative effects of 3-hydroxyacetanilide and acetaminophen were compared on plasma glutamate-pyruvate transaminase (GPT) activity. 600 mg/kg of acetaminophen were used in the test; whereas, a larger quantity, 900 mg/kg, of 3-hydroxyacetanilide was used. […] Activity was measured spectrophotometrically at room temperature using a Sigma® Enzyme Kit. The activity is expressed in micromoles per minute per […] of plasma. The blood for the test was collected in a small amount of heparin. Assays were performed within two hours after obtaining the blood. […] There appears to be a correlation between drug dose, amounts of necrosis seen histologically and elevation of transaminase levels.

in vivo = test: in vivo; design: species or system white mice; conditions: mouse; for survival at 96 h: ip
Experimental: ^(a) Mortality determined at 96 hours, all drugs given
intraperitoneally dissolved in saline at 42° C.
receiving same mg dose or saline controls and all acetaminophen groups p
<0.005 using chi square test.

[3] = system: plasma glutamate-pyruvate transaminase (GPT); test: Plasma glutamate-pyruvate transaminase (GPT) activity in mice; type: in vivo; conditions: for Effect on transaminase activity: 600 mg/kg acetaminophen, 900 mg/kg 3-hydroxyacetanilide; for Transaminase activity in plasma, Mean ± SD: saline 32 ± 18
Experimental: as §1

[4] = Roberts and Jollow; cited from earlier work
liver [5] = test: Gross appearance of livers of mice that died after injection; conditions: white mice
Experimental: Doses of 400, 600 and 900 milligrams per kilogram of 3-hydroxyacetanilide, of acetaminophen and of normal saline control were administered to white mice.

[6] = Mouse writhing test with 1% acetic acid; type: in vivo; conditions: for Writhes per 5 Minute (SD): 30 minutes prior to test, control 23.2 ± 5.3
Experimental: To test the effectiveness of 3-hydroxyacetanilide as an analgesic when compared to acetaminophen, a mouse writhing test was used wherein 1% acetic acid is given intraperitoneally 5 minutes prior to counting abdominal writhes made by the animal. The dose of the 1% […] is 0.01 cc/gm of body weight. Prior to counting the writhes, acetaminophen and 3-hydroxyacetanilide were given subcutaneously 30 minutes prior to the test. The control was given normal saline. […] This example therefore illustrates that 3-hydroxyacetanilide is unexpectedly as good an analgesic in this test as acetaminophen and should therefore be used in dosages similar to the dosages known to be effective for actaminophen and since it has almost the same analgesic effect in mice as acetaminophen, it would be expected to have the same analgesic effect as acetaminophen in other mammals.

[7] = system: plasma glutamate-pyruvate transaminase (GPT); conditions: mice, acetaminophen-induced hepatic injury; cited from earlier work
liver [8] = conditions: acetaminophen-induced hepatic injury, mice; cited from earlier work

Compound | Depletion of mouse liver glutathione (liver glutathione) | Liver glutathione level (liver glutathione) [mg/gram liver] | Anti-pyretic activity [1] | Hepatic necrosis (liver [2]) | Mortality compared with a comparable dose of acetaminophen (in vivo) | survival at 96 h (in vivo; 400 mg/kg) [%] | survival at 96 h (in vivo; 600 mg/kg) [%] | survival at 96 h (in vivo; 900 mg/kg) [%] | Effect on transaminase activity [3] | Transaminase activity in plasma, Mean ± SD ([3]; 900 mg/kg, n 17) [IU/ml Plasma] | Elevation in plasma GPT activity ([3]; 900 mg/kg, up to 48 hours after treatment) | Hepatotoxicity relative to acetaminophen [4] | Gross appearance of liver in mice which died (liver [5]) | Writhes per 5 Minute (SD) ([6]; 200 mg/kg s.c.) | Writhes per 5 Minute (SD) ([6]; 400 mg/kg s.c.) | Analgesic effect compared with acetaminophen ([6]; s.c., 200 and 400 mg/kg) | Reduction of the number of writhes per 5 minutes ([6]; s.c., 200 and 400 mg/kg) | Transaminase activity in plasma, Mean ± SD ([3]; 600 mg/kg, n 9) [IU/ml Plasma] | Time of maximum plasma transaminase levels after dose [7] | Hepatic injury, histology (liver [8])
CC(=O)Nc1cccc(O)c1 [3-hydroxyacetanilide] | much less depletion | 6.2 ± 1.2 | has anti-pyretic activity | did not cause a similar level of hepatic necrosis | considerably less mortality | 96 | 96 | 91 | much less effect | 23 ± 5 | No significant elevation | substantially less hepatotoxic than acetaminophen | no significant gross abnormality of the liver | 11.6 ± 8.1 | 1.3 ± 1.4 | statistically insignificant differences | effectively reduced the number of writhes per 5 minutes |  |  | 
CC(=O)Nc1ccc(O)cc1 [Acetaminophen, 4-hydroxyacetanilide, reference compound] | rapid depletion | 2.4 ± 0.6 |  |  |  | 40 | 20 | 20 | drastically affects the transaminase activity |  |  |  | large and grossly congested in appearance | 10.0 ± 6.2 | 3.5 ± 4.0 |  | effectively reduced the number of writhes per 5 minutes | 1834 ± 771 | approximately 6 hours | centrilobular necrosis
